The text below walks through data of patent US20220331442A1, “ANTIBODY-BIOMOLECULE CONJUGATES LINKED THROUGH MULTIFUNCTIONAL MACROMOLECULE AND USES THEREOF” (LEVIM BIOTECH LLP, priority 2018, published 2022).

The test system of one data set is H23 NSCLC cells. Description: MTT cytotoxicity assay. The format is cell-based. To be noted: gefitinib alone, up to a concentration of 25 μM, FIG. 21(b). (Formazan colour is commonly taken as a measure of viable cells.)
A further data set in a line: MTT cytotoxicity assay. The format is cell-based. The settings on record: human, H23 NSCLC cells; gefitinib alone at 50 μM, FIG. 21(b); read-out: Loss of viability of H23 cells.

With `COc1cc2ncnc(Nc3ccc(F)c(Cl)c3)c2cc1OCCCN1CCOCC1` [gefitinib], in the data set with H23 NSCLC cells, the “Cytotoxicity (MTT)” value is “no toxicity”. In addition, in the data set “MTT cytotoxicity assay”, the cytotoxicity at 50 μM stood at 70%.
